Data from PubChem BioAssay AID180 (DTP/NCI, 2004).
Where “and” joins values, the source holds several entries; their conditions need not be identical. Equal values may be shown once.

Tested on: BDF1 mice, Adenocarcinoma 755 s.c., tumor weight T/C
Assay: NCI In Vivo Anticancer Drug Screen. Data for tumor model Adenocarcinoma 755 (subcutaneous) in B6D2F1 (BDF1) mice
Settings: endpoint: mean tumor weight, higher = larger tumour
Method in brief: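 Readout: T/C, i.e. treated-group measurement over vehicle-control measurement. Endpoint is survival or tumor size in tumor-bearing mice given compound.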

[1] = dose: 25.0 mg/kg/injection, schedule: Q01DX011 (ip), vehicle: methylcellulose (MC)
[2] = dose: 50.0 mg/kg/injection, schedule: Q01DX011 (ip), vehicle: methylcellulose (MC)

Compound: Nc1nc(SCc2ccccc2)c2[nH]cnc2n1
- T/C (dose: 0.37 mg/kg/injection, schedule: Q01DX011 (ip), vehicle: carboxymethylcellulose (CMC)): 114 % of control
- T/C (dose: 0.37 mg/kg/injection, schedule: Q01DX011 (oral), vehicle: carboxymethylcellulose (CMC)): 71 % of control
- T/C (dose: 0.75 mg/kg/injection, schedule: Q01DX011 (ip), vehicle: carboxymethylcellulose (CMC)): 38 % of control
- T/C (dose: 0.75 mg/kg/injection, schedule: Q01DX011 (oral), vehicle: carboxymethylcellulose (CMC)): 52 % of control
- T/C (dose: 1.0 mg/kg/injection, schedule: Q#A X021 (ip), vehicle: carboxymethylcellulose (CMC)): 45 % of control
- T/C (dose: 1.25 mg/kg/injection, schedule: Q01DX011 (ip), vehicle: carboxymethylcellulose (CMC)): 53 % of control
- T/C (dose: 1.5 mg/kg/injection, schedule: Q01DX011 (im), vehicle: carboxymethylcellulose (CMC)): 69 % of control
- T/C (dose: 1.5 mg/kg/injection, schedule: Q01DX011 (ip), vehicle: carboxymethylcellulose (CMC)): 41 % of control
- T/C (dose: 1.5 mg/kg/injection, schedule: Q01DX011 (oral), vehicle: carboxymethylcellulose (CMC)): 61 % of control
- T/C (dose: 1.75 mg/kg/injection, schedule: Q01DX001 (ip), vehicle: carboxymethylcellulose (CMC)): 94 % of control and 114 % of control
- T/C (dose: 2.0 mg/kg/injection, schedule: Q01DX006 (iv), vehicle: carboxymethylcellulose (CMC)): 91 % of control
- T/C (dose: 2.0 mg/kg/injection, schedule: Q01DX011 (im), vehicle: carboxymethylcellulose (CMC)): 38 % of control
- T/C (dose: 2.0 mg/kg/injection, schedule: Q01DX011 (ip), vehicle: carboxymethylcellulose (CMC)): 33 % of control
- T/C (dose: 2.0 mg/kg/injection, schedule: Q01DX011 (sc), vehicle: carboxymethylcellulose (CMC)): 56 % of control
- T/C (dose: 2.0 mg/kg/injection, schedule: Q#A X021 (ip), vehicle: carboxymethylcellulose (CMC)): 15 % of control
- T/C (dose: 2.5 mg/kg/injection, schedule: Q01DX011 (ip), vehicle: carboxymethylcellulose (CMC)): 32 % of control
- T/C (dose: 3.0 mg/kg/injection, schedule: Q01DX011 (im), vehicle: carboxymethylcellulose (CMC)): 12 % of control
- T/C (dose: 3.0 mg/kg/injection, schedule: Q01DX011 (ip), vehicle: carboxymethylcellulose (CMC)): 5 % of control
- T/C (dose: 3.0 mg/kg/injection, schedule: Q01DX011 (oral), vehicle: carboxymethylcellulose (CMC)): 19 % of control
- T/C (dose: 3.5 mg/kg/injection, schedule: Q01DX001 (ip), vehicle: carboxymethylcellulose (CMC)): 112 % of control and 115 % of control
- T/C (dose: 4.0 mg/kg/injection, schedule: Q01DX006 (iv), vehicle: carboxymethylcellulose (CMC)): 40 % of control
- T/C (dose: 4.0 mg/kg/injection, schedule: Q01DX011 (im), vehicle: carboxymethylcellulose (CMC)): 10 % of control
- T/C (dose: 4.0 mg/kg/injection, schedule: Q01DX011 (ip), vehicle: carboxymethylcellulose (CMC)): 8 % of control
- T/C (dose: 4.0 mg/kg/injection, schedule: Q01DX011 (sc), vehicle: carboxymethylcellulose (CMC)): 13 % of control
- T/C (dose: 7.0 mg/kg/injection, schedule: Q01DX001 (ip), vehicle: carboxymethylcellulose (CMC)): 20 % of control and 33 % of control
- T/C (dose: 8.0 mg/kg/injection, schedule: Q01DX006 (iv), vehicle: carboxymethylcellulose (CMC)): 13 % of control
- T/C (dose: 8.0 mg/kg/injection, schedule: Q01DX011 (im), vehicle: carboxymethylcellulose (CMC)): 3 % of control
- T/C (dose: 8.0 mg/kg/injection, schedule: Q01DX011 (ip), vehicle: carboxymethylcellulose (CMC)): 3 % of control
- T/C (dose: 8.0 mg/kg/injection, schedule: Q01DX011 (sc), vehicle: carboxymethylcellulose (CMC)): 4 % of control
- T/C (dose: 8.0 mg/kg/injection, schedule: Q03DX004 (ip), vehicle: carboxymethylcellulose (CMC)): 25 % of control
- T/C (dose: 14.0 mg/kg/injection, schedule: Q07DX002 (ip), vehicle: carboxymethylcellulose (CMC)): 34 % of control
- T/C (dose: 16.0 mg/kg/injection, schedule: Q01DX006 (iv), vehicle: carboxymethylcellulose (CMC)): 7 % of control
- T/C (dose: 16.0 mg/kg/injection, schedule: Q01DX011 (im), vehicle: carboxymethylcellulose (CMC)): 2 % of control
- T/C (dose: 16.0 mg/kg/injection, schedule: Q01DX011 (ip), vehicle: carboxymethylcellulose (CMC)): 3 % of control
- T/C (dose: 16.0 mg/kg/injection, schedule: Q01DX011 (sc), vehicle: carboxymethylcellulose (CMC)): 3 % of control
- T/C (dose: 16.0 mg/kg/injection, schedule: Q03DX004 (ip), vehicle: carboxymethylcellulose (CMC)): 8 % of control
- T/C (dose: 24.0 mg/kg/injection, schedule: Q01DX006 (iv), vehicle: carboxymethylcellulose (CMC)): 4 % of control
- T/C (dose: 24.0 mg/kg/injection, schedule: Q01DX011 (im), vehicle: carboxymethylcellulose (CMC)): 4 % of control
- T/C (dose: 24.0 mg/kg/injection, schedule: Q01DX011 (ip), vehicle: carboxymethylcellulose (CMC)): 3 % of control
- T/C (dose: 24.0 mg/kg/injection, schedule: Q01DX011 (sc), vehicle: carboxymethylcellulose (CMC)): 3 % of control
- T/C (dose: 28.0 mg/kg/injection, schedule: Q01DX001 (ip), vehicle: carboxymethylcellulose (CMC)): 12 % of control
- T/C (dose: 28.0 mg/kg/injection, schedule: Q07DX002 (ip), vehicle: carboxymethylcellulose (CMC)): 30 % of control
- T/C (dose: 32.0 mg/kg/injection, schedule: Q01DX006 (iv), vehicle: carboxymethylcellulose (CMC)): 5 % of control
- T/C (dose: 32.0 mg/kg/injection, schedule: Q01DX011 (im), vehicle: carboxymethylcellulose (CMC)): 3 % of control
- T/C (dose: 48.0 mg/kg/injection, schedule: Q01DX011 (sc), vehicle: carboxymethylcellulose (CMC)): 2 % of control
- T/C (dose: 56.0 mg/kg/injection, schedule: Q01DX001 (ip), vehicle: carboxymethylcellulose (CMC)): 10 % of control
- T/C (dose: 56.0 mg/kg/injection, schedule: Q07DX002 (ip), vehicle: carboxymethylcellulose (CMC)): 18 % of control
- T/C (dose: 64.0 mg/kg/injection, schedule: Q01DX011 (sc), vehicle: carboxymethylcellulose (CMC)): 3 % of control
- T/C (dose: 112.0 mg/kg/injection, schedule: Q01DX001 (ip), vehicle: carboxymethylcellulose (CMC)): 10 % of control
- T/C (dose: 112.0 mg/kg/injection, schedule: Q07DX002 (ip), vehicle: carboxymethylcellulose (CMC)): 1 % of control

Compound: CCc1nc(N)nc(N)c1-c1ccc(Cl)cc1
- T/C (dose: 3.0 mg/kg/injection, schedule: Q01DX011 (ip), vehicle: methylcellulose (MC)): 52 % of control
- T/C (dose: 6.0 mg/kg/injection, schedule: Q01DX011 (ip), vehicle: methylcellulose (MC)): 38 % of control
- T/C (dose: 6.25 mg/kg/injection, schedule: Q01DX011 (ip), vehicle: carboxymethylcellulose (CMC)): 77 % of control
- T/C (dose: 11.85 mg/kg/injection, schedule: Q01DX011 (ip), vehicle: carboxymethylcellulose (CMC)): 82 % of control
- T/C (dose: 12.0 mg/kg/injection, schedule: Q01DX011 (ip), vehicle: methylcellulose (MC)): 49 % of control
- T/C (dose: 12.5 mg/kg/injection, schedule: Q01DX011 (ip), vehicle: carboxymethylcellulose (CMC)): 99 % of control
- T/C (dose: 23.7 mg/kg/injection, schedule: Q01DX011 (ip), vehicle: carboxymethylcellulose (CMC)): 116 % of control
- T/C (dose: 25.0 mg/kg/injection, schedule: Q01DX011 (ip), vehicle: carboxymethylcellulose (CMC)): 115 % of control
- T/C [1]: 62 % of control
- T/C (dose: 47.4 mg/kg/injection, schedule: Q01DX011 (ip), vehicle: carboxymethylcellulose (CMC)): 105 % of control
- T/C (dose: 50.0 mg/kg/injection, schedule: Q01DX011 (ip), vehicle: carboxymethylcellulose (CMC)): 72 % of control
- T/C [2]: 71 % of control
- T/C (dose: 62.5 mg/kg/injection, schedule: Q01DX011 (ip), vehicle: methylcellulose (MC)): 43 % of control

Compound: COc1ccc(-n2cnc3c(N)nc(N)nc32)cc1
- T/C [1]: 68 % of control
- T/C [2]: 62 % of control
- T/C (dose: 100.0 mg/kg/injection, schedule: Q01DX011 (ip), vehicle: methylcellulose (MC)): 50 % of control
- T/C (dose: 200.0 mg/kg/injection, schedule: Q01DX011 (ip), vehicle: methylcellulose (MC)): 57 % of control
